Source: patent US5668168A, “1,2-dithiin antiinfective agents” (Shaman Pharmaceuticals, Inc., priority 1995, dated 1997)
Values after ≈ are worked out from the molar mass of the structure shown. Where two headings read alike, the source gives them in different places.

Columns and labels:
[1] = isolated from Aspilia mossambicesis and A. plurisetta; literature; cited from earlier work
[2] = test system: Candida albicans ATCC 10259; experiment: In vitro susceptibility, microdilution broth MIC, C. albicans ATCC 10259; format: cell-based; details: ATCC10259, 48 h
Protocol: (§1) MIC tests were performed by a microdilution broth assay. The fungi tested were Candida albicans ATCC 10259 and strain B311, Cryptococcus neoformans ATCC 36556, Aspergillus fumigatus ATCC 13073, and Trichophyton rubrum ATCC 18762. The yeasts were propagated on yeast morphology agar, while the filamentous fungi were grown on Sabouraud's agar. All tests were performed in Sabouraud's broth in 96-well microliter plates, with compounds diluted serially, then inoculated with 2×10^4 cfu/ml for C. albicans, 4×10^4 cfu/ml for C. neoformans, 1×10^3 cfu/ml for A. fumigatus, and 1×10^3 cfu/ml for T. rubrum (all expressed as final concentrations). Plates were incubated at 30° C. for 48 h for all fungi except T. rubrum, which was incubated for 5 days. MIC's were read as the lowest concentration completely inhibiting growth. After MIC endpoints were determined, 50 ul portions were removed and plated on yeast morphology agar to detect viable organisms, and were incubated at 30° C. for 48 h. The MFC was determined to be the well with the lowest concentration resulting in no growth.

[3] = test system: Candida albicans strain B311; experiment: In vitro susceptibility, microdilution broth MIC, C. albicans B311; format: cell-based; details: Table 1a, Sabouraud's broth, 30° C., 48 h
Protocol: as §1

[4] = test system: Cryptococcus neoformans ATCC 36556; experiment: In vitro susceptibility, microdilution broth MIC, C. neoformans; format: cell-based; details: ATCC36556, 48 h
Protocol: as §1

[5] = test system: Aspergillus fumigatus ATCC 13073; experiment: In vitro susceptibility, microdilution broth MIC, A. fumigatus; format: cell-based; details: ATCC13073, 48 h
Protocol: as §1

[6] = test system: Trichophyton rubrum ATCC 18762; experiment: In vitro susceptibility, microdilution broth MIC, T. rubrum; format: cell-based; details: ATCC18762, 120 h, Table 1a, Sabouraud's broth, 30° C., 5 days
Protocol: as §1

[7] = test system: Candida albicans ATCC 10259; experiment: Minimum fungicidal concentration (MFC), C. albicans ATCC 10259; format: cell-based; details: ATCC10259, 48 h, read-out: MIC (as headed), C. albicans 10259 (MFC)
Protocol: as §1

[8] = test system: Candida albicans strain B311; experiment: Minimum fungicidal concentration (MFC), C. albicans B311; format: cell-based; details: B311, 48 h, Table 1a, seventh value column, read-out: MIC (as headed), C. albicans B311 (MFC)
Protocol: as §1

fungi = experiment: In vitro susceptibility tests (MIC and MFC), overall statements; format: cell-based; details: Candida, Cryptococcus, Aspergillus, medically important fungi
Protocol: as §1

[9] = test system: dermal irritation and erythema, ear of ICR mice; experiment: Dermal toxicology (irritation) test in ICR mice; format: in vivo; details: 10 mg topically
Protocol: Thiarubrine A and a new 1,2-dithiin compound 3,6-bis(hydroxymethyl)-1,2-dithiin were tested for the ability to elicit dermal irritation in ICR mice. Animals in groups of five each were lightly anesthetized, then the test substance, previously dissolved in aquaphor, was applied in the amount of 10 mg topically to the dorsal aspect of the right ear. Aquaphor without test substance was applied to the left ear as a control. Animals were inspected daily for five days for signs of dermal irritation and erythema, which was scored subjectively on a scale from 1 to 15, with 15 indicating severe toxicity.

[10] = Systemic toxicology test in ICR mice, intraperitoneal; format: in vivo; details: mouse, in vivo, ip
Protocol: (§2) Thiarubrine A and the novel 3,6-bis(hydroxymethyl)-1,2-dithiin have also been evaluated for their systemic toxicity potential. ICR mice, in groups of five or six each were injected with solutions of the test compound given intraperitoneally for three consecutive days for thiarubrine A and five consecutive days for the 1,2-dithiin. Animals were weighed daily and observed for mortalities over a 14 day period. An LD50 of 0.6 mg/kg for thiarubrine A was determined.

ICR mice = experiment: as above; format: in vivo; details: three consecutive days
Protocol: as §2

[11] = Table 1a, Sabouraud's broth, 30° C., read-out: MIC C. albicans 10259
[12] = Table 1a, Sabouraud's broth, 30° C., read-out: MIC C. neoformans
[13] = Table 1a, Sabouraud's broth, 30° C., read-out: MIC A. fumigatus
[14] = Table 1b, Sabouraud's broth, 30° C., read-out: MIC C. albicans 10259
[15] = Table 1b, Sabouraud's broth, 30° C., read-out: MIC C. neoformans
[16] = Table 1b, Sabouraud's broth, 30° C., read-out: MIC A. fumigatus

MIC [2, 11]	MIC [4, 12]	MIC [5, 13]	MIC [2, 14]	MIC [4, 15]	MIC [5, 16]	SMILES	MFC ([7]; Table 1a)	further results
						C=CC#CC1=CC=C(C#CC#CC)SS1 [thiarubrine B]		Biological activity (in words) [1]: wide spectrum of biological activity including antiviral and antibiotic activities
8 µg/mL (≈ 46.4 µM)	4 µg/mL (≈ 23.2 µM)	8 µg/mL (≈ 46.4 µM)				O=CC1=CC=C(C=O)SS1 [Dithiin E, 3,6-Diformyl-1,2-dithiin]	8 µg/mL (≈ 46.4 µM)	MIC [3]: 8 µg/mL (≈ 46.4 µM); MIC [6]: 4 µg/mL (≈ 23.2 µM); MFC [8]: 8 µg/mL (≈ 46.4 µM)
3.1 µg/mL (≈ 11.9 µM)	0.8 µg/mL (≈ 3.07 µM)	0.4 µg/mL (≈ 1.54 µM)	3.1 µg/mL (≈ 11.9 µM)	0.8 µg/mL (≈ 3.07 µM)	0.2 µg/mL (≈ 0.768 µM)	CC(=O)OCC1=CC=C(COC(C)=O)SS1 [Dithiin B, 3,6-Bis(acetyloxymethyl)-1,2-dithiin]	6.3 µg/mL (≈ 24.2 µM)	
						C=CC#CC#CC1=CC=C(C#CC)SS1 [Thia A, thiarubrine A]		MIC ([2]; read-out: MIC C. albicans 10259, Table 1a, Sabouraud's broth, 30° C.): 0.15 µg/mL (≈ 0.657 µM); MIC ([2]; read-out: MIC C. albicans 10259, Table 1b, Sabouraud's broth, 30° C.): 0.39 µg/mL (≈ 1.71 µM); MIC ([4]; read-out: MIC C. neoformans, Table 1a, Sabouraud's broth, 30° C.): 0.61 µg/mL (≈ 2.67 µM); MIC ([4]; read-out: MIC C. neoformans, Table 1b, Sabouraud's broth, 30° C.): 0.78 µg/mL (≈ 3.42 µM); MIC ([5]; read-out: MIC A. fumigatus, Table 1a, Sabouraud's broth, 30° C.): 0.15 µg/mL (≈ 0.657 µM); MIC ([5]; read-out: MIC A. fumigatus, Table 1b, Sabouraud's broth, 30° C.): 0.1 µg/mL (≈ 0.438 µM); MFC [7]: 0.3 µg/mL (≈ 1.31 µM); Dermal irritation and erythema ([9]; five days): pronounced toxicity; Average score for dermal irritation, treated ear, Day 3 ([9]; Day 3, scale 1 to 15): 7; Average score for dermal irritation, treated ear, Day 4 ([9]; Day 4, scale 1 to 15): 9; Average score for dermal irritation, treated ear, Day 5 ([9]; Day 5, scale 1 to 15, control ear 4): 9; Average score for dermal irritation, treated ear, Day 2 ([9]; first column pair of Table 2, headed Day 2, scale 1 to 15): 4; Average score for dermal irritation, treated ear, Day 2 ([9]; second column pair of Table 2, headed Day 2, scale 1 to 15): 6; LD50 at 336 h ([10]; three consecutive days, 14 day observation, read-out: LD50): 0.6 mg/kg; LD50 at 336 h ([10]; total dose over three days, read-out: LD50, total dose): ~1.8 mg/kg; Systemic toxicity (in words) (ICR mice): highly toxic; Biological activity (in words) [1]: wide spectrum of biological activity including antiviral and antibiotic activities
			6.3 µg/mL (≈ 20.2 µM)	3.1 µg/mL (≈ 9.92 µM)	1.6 µg/mL (≈ 5.12 µM)	O=C(OCC1=CC=C(COC(=O)C2CC2)SS1)C1CC1 [Dithiin I, 3,6-Bis(cyolopropanecarbonyloxymethyl)-1,2-dithiin]		
			3.1 µg/mL (≈ 12.7 µM)	1.6 µg/mL (≈ 6.55 µM)	0.8 µg/mL (≈ 3.27 µM)	O=C(OCC1=CC=C(CO)SS1)C1CC1 [Dithiin J]		
31 µg/mL (≈ 117 µM)	8 µg/mL (≈ 30.3 µM)	63 µg/mL (≈ 238 µM)				COCOCC1=CC=C(COCOC)SS1 [Dithiin D]	> 250 µg/mL	MIC [3]: 125 µg/mL (≈ 473 µM); MIC [6]: 8 µg/mL (≈ 30.3 µM); MFC [8]: 125 µg/mL (≈ 473 µM)
			> 100 µg/mL	> 100 µg/mL	> 100 µg/mL	CC(C)C(=O)OCC1=CC=C(COC(=O)C(C)C)SS1 [Dithiin H, 3,6-Bis(isobutyryloxymethyl)-1,2-Dithiin]		
12.5 µg/mL (≈ 78 µM)						CC1=CC=C(CO)SS1 [Dithiin C]		
			12.5 µg/mL (≈ 43.3 µM)	6.3 µg/mL (≈ 21.8 µM)	3.1 µg/mL (≈ 10.7 µM)	CCC(=O)OCC1=CC=C(COC(=O)CC)SS1 [Dithiin G, 3,6-Bis(propionyloxymethyl)-1,2-dithiin]		

SMILES	MIC [2, 11]	MIC [4, 12]	MIC [5, 13]	MIC [2, 14]	MIC [4, 15]	MIC [5, 16]	MFC ([7]; Table 1a)	further results
OCC1=CC=C(CO)SS1 [Dithiin A, 3,6-Bis(hydroxymethyl)-1,2-dithiin]	16 µg/mL (≈ 90.8 µM)	2 µg/mL (≈ 11.3 µM)	16 µg/mL (≈ 90.8 µM)	25 µg/mL (≈ 142 µM)	1.6 µg/mL (≈ 9.08 µM)	6.3 µg/mL (≈ 35.7 µM)	63 µg/mL (≈ 357 µM)	MIC [3]: 31 µg/mL (≈ 176 µM); MIC [6]: 16 µg/mL (≈ 90.8 µM); In vitro antifungal activity (in words) (fungi): potent broad spectrum antifungal activity
